# Assay results from patent US20210238138A1, “Method for improving nucleation of crystals from solution” (Université Libre de Bruxelles, priority 2018, published 2021).
# Key:
# Format in all cases: physicochemical
# [1] = Antisolvent (hexane) crystallisation of Brivaracetam/IPAc in capillary tubing; conditions: for Crystals Mean maximum length: inner diameter 500 μm, flows 20 and 20 mL · min^−1
# Protocol: The length of the capillary tube has also been varied. In the following tests, antisolvent hexane at 4° C. was added to a solution of Brivaracetam/IPAc. It became clear that for these cases different lengths of tubing are to be investigated, as too long tube results into blockage of the tubes due to too high solid content in suspension in the solution, as reported in table 6. In all cases, the preferred rods form was observed.
# [2] = Solubility temperature and spontaneous nucleation temperature of aspirin solution; conditions: 200 mg/mL in 50/50 vol % ethanol/water
# Description: (§1) The transition time is defined as the time necessary to reach crystallization conditions in the used setup (i.e. time for a fluid particle flowing in the liquid to get from undersaturated conditions to nucleation conditions). Therefore, this time is at a given concentration dominated by the difference in temperature between the solubility temperature and the metastable zone width or MSZW. At temperatures below this MSZW the solute in solution starts to nucleate spontaneously. […] (both measured). The transition time is then defined as the time needed to overcome this 20° C. difference in temperature.
# [3] = Transient time and distance of aspirin solution in tubing; conditions: 200 mg/mL in ethanol/water 50/50 vol %, start 60° C., water bath 10° C.; for Transient distance: flow rate 30 mL/min
# Description: Two different capillaries of dimensions 1000 and 1500 μm inner diameter ID were used for a test using the setup of FIG. 1 in which the evolution of temperature inside the tubing was experimentally investigated at different distances.
# as §1
# As a consequence, for a 1500 μm inner diameter tubing, the total tubing length necessary to conduct crystallization is a multitude of the corresponding transient distance, making any workable application impossible: about 3.5 m are necessary to overcome the solubility time; 3.5 m to reach transient distance and approximately the 4 times the transient distance is necessary to increase sufficiently the induction time. The transient distance is defined as the distance the liquid is transferred during the transient time at a given flow rate.
# [4] = Cooling crystallisation of acetylsalicylic acid in ethanol/water in capillary tubing
# [5] = Maturing of acetylsalicylic acid crystals (growth treatment, early filtration); conditions: 3 m tubing
# [6] = 200 mg/mL 50 vol % ethanol/water, residence time 5.3 s, initial 65° C., bath 10° C., tubing ID 1000 μm, flow rate 20 mL/min, tubing length 2.5 m
# [7] = test 40: 200 mg/mL ethanol/water 50/50 vol %, 3 m tubing, Tc 15° C., σ 4.5, 30 mL/min, restriction 0, average of 10 tests
# [8] = test 41: 200 mg/mL ethanol/water 50/50 vol %, 3 m tubing, Tc 15° C., σ 4.5, 30 mL/min, restriction 1 of 500 μm ID, average of 10 tests
# [9] = test 42: 200 mg/mL ethanol/water 50/50 vol %, 3 m tubing, Tc 15° C., σ 4.5, 30 mL/min, restriction 2 of 500 μm ID, average of 10 tests
# [10] = test 43: 200 mg/mL ethanol/water 50/50 vol %, 3 m tubing, Tc 15° C., σ 4.5, 30 mL/min, restriction 1 of 250 μm ID, average of 10 tests
# [11] = test 44: 200 mg/mL ethanol/water 50/50 vol %, 3 m tubing, Tc 15° C., σ 4.5, 30 mL/min, restriction 2 of 250 μm ID, average of 10 tests
# [12] = test 45: 200 mg/mL ethanol/water 50/50 vol %, Tc 10° C., σ 6.7, 30 mL/min, no restrictions, Growth to equilibrium in tubing
# [13] = test 46: 200 mg/mL ethanol/water 50/50 vol %, Tc 10° C., σ 6.7, 30 mL/min, no restrictions, filtration on 16 μm glass filter after 60 s
# [14] = test 47: 200 mg/mL ethanol/water 50/50 vol %, Tc 10° C., σ 6.7, 30 mL/min, no restrictions, filtration on 16 μm glass filter after 90 s
# [15] = test 48: 200 mg/mL ethanol/water 50/50 vol %, Tc 10° C., σ 6.7, 30 mL/min, no restrictions, Addition to saturated solution
compound,measurement,setting,value
CCC[C@@H]1CC(=O)N([C@@H](CC)C(N)=O)C1 [Brivaracetam],Crystal form observed,[1]; all antisolvent (hexane) tests of tables 5 and 6,rods
same,Crystals Mean maximum length,"[1]; test 22: 150 mg · mL^−1 in IPAc, σ 8.4, hexane antisolvent, tubular length 18 cm",6 ± 2 μm
same,Crystals Mean maximum length,"[1]; test 23: 150 mg · mL^−1 in IPAc, σ 8.4, hexane antisolvent, tubular length 33 cm",9 ± 5 μm
same,Crystals Mean maximum length,"[1]; test 24: 150 mg · mL^−1 in IPAc, σ 8.4, hexane antisolvent, tubular length 50 cm",10 ± 5 μm
same,Crystals Mean maximum length,"[1]; test 25: 150 mg · mL^−1 in IPAc, σ 8.4, hexane antisolvent, tubular length 50 cm",9 ± 4 μm
same,Crystals Mean maximum length,"[1]; test 26: 150 mg · mL^−1 in IPAc, σ 8.4, hexane antisolvent, tubular length 100 cm",Blocked tube
same,Crystals Mean maximum length,"[1]; test 27: 200 mg · mL^−1 in IPAc, σ 11.5, hexane antisolvent, tubular length 18 cm",12 ± 6 μm
same,Crystals Mean maximum length,"[1]; test 28: 200 mg · mL^−1 in IPAc, σ 11.5, hexane antisolvent, tubular length 33 cm",7 ± 3 μm
same,Crystals Mean maximum length,"[1]; test 29: 200 mg · mL^−1 in IPAc, σ 11.5, hexane antisolvent, tubular length 50 cm",9 ± 5 μm
same,Crystals Mean maximum length,"[1]; test 30: 200 mg · mL^−1 in IPAc, σ 11.5, hexane antisolvent, tubular length 50 cm",7 ± 3 μm
same,Crystals Mean maximum length,"[1]; test 31: 200 mg · mL^−1 in IPAc, σ 11.5, hexane antisolvent, tubular length 100 cm",Blocked tube
same,Crystals Mean maximum length,"[1]; test 32: 300 mg · mL^−1 in IPAc, σ 17.8, hexane antisolvent, tubular length 50 cm",8 ± 3 μm
same,Crystals Mean maximum length,"[1]; test 33: 300 mg · mL^−1 in IPAc, σ 17.8, hexane antisolvent, tubular length 100 cm",Blocked tube
"CC(=O)Oc1ccccc1C(=O)O [Acetylsalicylic acid, acetylsalicylic acid]",Solubility temperature,[2],40 °C
same,Temperature at which spontaneous nucleation starts,[2],20 °C
same,Transient time,[3]; tubing 1000 μm,1 000 ms
same,Transient distance,[3]; tubing 1000 μm,1.3 m
same,Transient time,[3]; tubing 1500 μm,5 700 ms
same,Transient distance,[3]; tubing 1500 μm,3.5 m
same,Nucleation rate J,"[4]; 200 mg/mL 50 vol % ethanol/water, residence time 5.3 s, initial 65° C., bath 10° C., tubing ID 750 μm, flow rate 20 mL/min, tubing length 4.2 m",50 000 mL^−1 · s−^1
same,Crystal length,"[4]; 200 mg/mL 50 vol % ethanol/water, residence time 5.3 s, initial 65° C., bath 10° C., tubing ID 750 μm, flow rate 30 mL/min, tubing length 6.2 m",285 μm
same,Crystal length,[4]; [6],1279 μm
same,Nucleation rate J,[4]; [6],1400 mL^−1 · s−^1
same,Nucleation rate J,"[4]; 200 mg/mL 50 vol % ethanol/water, residence time 5.3 s, initial 65° C., bath 10° C., tubing ID 1000 μm, flow rate 30 mL/min, tubing length 3.6 m",54 000 mL^−1 · s−^1
same,Nucleation rate J,"[4]; 200 mg/mL 50 vol % ethanol/water, residence time 5.3 s, initial 65° C., bath 10° C., tubing ID 1000 μm, flow rate 40 mL/min, tubing length 4.7 m",112 000 mL^−1 · s−^1
same,Crystal length,"[4]; 200 mg/mL 50 vol % ethanol/water, residence time 5.3 s, initial 65° C., bath 10° C., tubing ID 1500 μm, flow rate 20 mL/min, tubing length 1.2 m",No crystallization observed
same,Crystal length,"[4]; 200 mg/mL 50 vol % ethanol/water, residence time 5.3 s, initial 65° C., bath 10° C., tubing ID 1500 μm, flow rate 30 mL/min, tubing length 1.7 m",No crystallization observed
same,Crystal length,"[4]; 200 mg/mL 50 vol % ethanol/water, residence time 5.3 s, initial 65° C., bath 10° C., tubing ID 1500 μm, flow rate 40 mL/min, tubing length 2.2 m",No crystallization observed
same,Crystal length,"[4]; test 34: 300 mg/mL ethanol-water, Tc 15° C., σ 27, Q 30 mL/min, tubing length 7 m, diameter 500 μm, 4 restrictions 1 mm long, 500 μm",Tube blocked
same,Crystal length,"[4]; test 35: 300 mg/mL ethanol-water, Tc 10° C., σ 27, Q 30 mL/min, tubing length 6 m, diameter 750 μm, 4 restrictions 1 mm long, 500 μm",Tube blocked
same,Crystal length,"[4]; test 36: 300 mg/mL ethanol-water, Tc 10° C., σ 27, Q 30 mL/min, tubing length 5 m, diameter 500 μm, 4 restrictions 1 mm long, 500 μm",Tube blocked
same,Crystal length,"[4]; test 37: 300 mg/mL ethanol-water, Tc 10° C., σ 27, Q 30 mL/min, tubing length 3 m, diameter 500 μm, 4 restrictions 1 mm long, 500 μm",800 ± 68 μm
same,Crystal length,"[4]; test 38: 300 mg/mL ethanol-water, Tc 10° C., σ 27, Q 30 mL/min, tubing length 3 m, diameter 500 μm, 4 restrictions 1 mm long, 500 μm",820 ± 80 μm
same,Crystal length,"[4]; test 39: 300 mg/mL ethanol-water, Tc 10° C., σ 27, Q 30 mL/min, tubing length 3 m, diameter 500 μm, 4 restrictions 1 mm long, 500 μm",795 ± 73 μm
same,Crystal length,[4]; [7],1319 ± 167 μm
same,Nucleation rate,[4]; [7],2300 mL⁻¹ s⁻¹
same,Sphere Equivalent Diameter,[4]; [7],449 ± 74 μm
same,Crystal length,[4]; [8],1398 ± 100 μm
same,Nucleation rate,[4]; [8],1900 mL⁻¹ s⁻¹
same,Sphere Equivalent Diameter,[4]; [8],490 ± 85 μm
same,Crystal length,[4]; [9],1049 ± 179 μm
same,Nucleation rate,[4]; [9],3700 mL⁻¹ s⁻¹
same,Sphere Equivalent Diameter,[4]; [9],348 ± 104 μm
same,Crystal length,[4]; [10],962 ± 82 μm
same,Nucleation rate,[4]; [10],5300 mL⁻¹ s⁻¹
same,Sphere Equivalent Diameter,[4]; [10],328 ± 31 μm
same,Crystal length,[4]; [11],393 ± 35 μm
same,Nucleation rate,[4]; [11],130 000 mL^−1 · s^−1
same,Sphere Equivalent Diameter,[4]; [11],117 ± 20 μm
same,Crystal depth as fraction of the width,"[4]; tests 43 and 44 (250 μm inner diameter restrictions), 200 mg/mL ethanol/water 50/50",about ⅕
same,Crystal length,[5]; [12],500 ± 230 μm
same,Crystal width,[5]; [12],69 ± 27 μm
same,Crystal length,[5]; [13],359 ± 190 μm
same,Crystal width,[5]; [13],66 ± 35 μm
same,Crystal length,[5]; [14],646 ± 391 μm
same,Crystal width,[5]; [14],38 ± 23 μm
same,Crystal length,[5]; [15],172 ± 66 μm
same,Crystal width,[5]; [15],38 ± 13 μm
same,Crystal length,"[5]; test 50: 200 mg/mL ethanol/water 50/50 vol %, Tc 15° C., σ 4.5, 30 mL/min, restriction 2 of 250 μm ID, filtration At exit",63 ± 36 μm
same,Sphere Equivalent Diameter,"[5]; test 51: 200 mg/mL ethanol/water 50/50 vol %, Tc 15° C., σ 4.5, 30 mL/min, restriction 2 of 250 μm ID, filtration After 120 s, thickness set to ⅕ of width",42 ± 11 μm
